For 17 molecules, IC50 results are on record in patent publication US20260297081A1, “COMPOUNDS AND METHODS OF TREATING CANCERS” (Cullgen Inc., priority 2023, published 2026).

Where two headings read alike, the source gives them in different places.

What is called IC50 is the point on the concentration scale where inhibition reaches its midpoint.

In the assay the test system is MCF7 cells. The experiment in a line: Anti-proliferation (viability) of MCF7 cells (Table 7, FIG. 2B). It counts as cell-based. As to conditions: 3-6 days, 10-point serial dilution, read-out: GI IC50 in MCF-7.

As for `CNc1ccc(C(=O)Nc2ccc(N(C)C)nn2)c(NC2CCC(N(C)C(=O)CN3CCN(c4ccc(Nc5ncc6c(C)c(C(C)=O)c(=O)n(C7CCCC7)c6n5)nc4)CC3)C2)n1` (centres unmarked) [CPD-430, 2-((3-(2-(4-(6-((6-acetyl-8-cyclopentyl-5-methyl-7-oxo-7,8-dihydropyrido[2,3-d]pyrimidin-2-yl)amino)pyridin-3-yl)piperazin-1-yl)-N-methylacetamido)cyclopentyl)amino)-N-(6-(dimethylamino)pyridazin-3-yl)-6-(methylamino)nicotinamide], where the note is “Homo sapiens, MCF7, MCF7 cells”, the half-maximal inhibitory concentration (IC50) was over 100 nM.
Turning to `CC(=O)c1c(C)c2cnc(Nc3ccc(N4CCN(CC(=O)NC5CC6(C5)CC(Nc5cc(F)ccc5C(=O)Nc5cc(C)on5)C6)CC4)cn3)nc2n(C2CCCC2)c1=O` (centres unmarked) [CPD-260, 2-((6-(2-(4-(6-((6-acetyl-8-cyclopentyl-5-methyl-7-oxo-7,8-dihydropyrido[2,3-d]pyrimidin-2-yl)amino)pyridin-3-yl)piperazin-1-yl)acetamido)spiro[3.3]heptan-2-yl)amino)-4-fluoro-N-(5-methylisoxazol-3-yl)benzamide], under “Homo sapiens, MCF7, MCF7 cells”, the IC50 is over 100 nM.
`CC(=O)c1c(C)c2cnc(Nc3ccc(N4CCC(N5CCC(C(=O)N6CCC(Nc7nc(NC(C)C)ccc7C(=O)Nc7ccc(N(C)C)nn7)CC6)C5)CC4)cn3)nc2n(C2CCCC2)c1=O` (centres unmarked) [CPD-396, 2-((1-(1-(1-(6-((6-acetyl-8-cyclopentyl-5-methyl-7-oxo-7,8-dihydropyrido[2,3-d]pyrimidin-2-yl)amino)pyridin-3-yl)piperidin-4-yl)pyrrolidine-3-carbonyl)piperidin-4-yl)amino)-N-(6-(dimethylamino)pyridazin-3-yl)-6-(isopropylamino)nicotinamide]: the IC50 (Homo sapiens, MCF7, MCF7 cells) is over 100 nM.
The same measure, in the same setting: for `CNc1ccc(C(=O)Nc2cn(C)c(C3CC3)n2)c(NC2CCC3(CC2)CC(NC(=O)CN2CCN(c4ccc(Nc5ncc6c(C)c(C(C)=O)c(=O)n(C7CCCC7)c6n5)nc4)CC2)C3)n1` (centres unmarked) [CPD-347, 2-((2-(2-(4-(6-((6-acetyl-8-cyclopentyl-5-methyl-7-oxo-7,8-dihydropyrido[2,3-d]pyrimidin-2-yl)amino)pyridin-3-yl)piperazin-1-yl)acetamido)spiro[3.5]nonan-7-yl)amino)-N-(2-cyclopropyl-1-methyl-1H-imidazol-4-yl)-6-(methylamino)nicotinamide] the value was over 100 nM; for `CNc1ccc(C(=O)Nc2cn(C)c(C3CC3)n2)c(NC2CC3(C2)CN(C(=O)C2CC24CCN(c2ccc(Nc5ncc6c(C)c(C(C)=O)c(=O)n(C7CCCC7)c6n5)nc2)CC4)C3)n1` (centres unmarked) [CPD-320, 2-((2-(6-(6-((6-acetyl-8-cyclopentyl-5-methyl-7-oxo-7,8-dihydropyrido[2,3-d]pyrimidin-2-yl)amino)pyridin-3-yl)-6-azaspiro[2.5]octane-1-carbonyl)-2-azaspiro[3.3]heptan-6-yl)amino)-N-(2-cyclopropyl-1-methyl-1H-imidazol-4-yl)-6-(methylamino)nicotinamide], over 100 nM; for `[2H]C([2H])([2H])Nc1ccc(C(=O)Nc2ccc(N(C)C)nn2)c(NC2CC3(CC(NC(=O)CN4CCC5(CCN(c6ccc(Nc7ncc8c(C)c(C(C)=O)c(=O)n(C9CCCC9)c8n7)nc6)C5)C4)C3)C2)n1` (centres unmarked) [CPD-449, 2-((6-(2-(7-(6-((6-acetyl-8-cyclopentyl-5-methyl-7-oxo-7,8-dihydropyrido[2,3-d]pyrimidin-2-yl)amino)pyridin-3-yl)-2,7-diazaspiro[4.4]nonan-2-yl)acetamido)spiro[3.3]heptan-2-yl)amino)-N-(6-(dimethylamino)pyridazin-3-yl)-6-((methyl-d3)amino)nicotinamide], under 50 nM.
Regarding `CNc1ccc(C(=O)Nc2ccc(N(C)C)nn2)c(NCC2COC3(C2)CN(C(=O)CN2CCN(c4ccc(Nc5ncc6c(C)c(C(C)=O)c(=O)n(C7CCCC7)c6n5)nc4)CC2)C3)n1` (centres unmarked) [CPD-354, 2-(((2-(2-(4-(6-((6-acetyl-8-cyclopentyl-5-methyl-7-oxo-7,8-dihydropyrido[2,3-d]pyrimidin-2-yl)amino)pyridin-3-yl)piperazin-1-yl)acetyl)-5-oxa-2-azaspiro[3.4]octan-7-yl)methyl)amino)-N-(6-(dimethylamino)pyridazin-3-yl)-6-(methylamino)nicotinamide], under “Homo sapiens, MCF7, MCF7 cells”, the 50% inhibitory concentration (IC50) was over 100 nM.
On to `CC(=O)c1c(C)c2cnc(Nc3ccc(N4CCN(CCC(=O)N5CC(Nc6nc(NC(C)C)ccc6C(=O)Nc6cn(C)c(C7CC7)n6)C5)CC4)cn3)nc2n(C2CCCC2)c1=O` [CPD-304, 2-((1-(3-(4-(6-((6-acetyl-8-cyclopentyl-5-methyl-7-oxo-7,8-dihydropyrido[2,3-d]pyrimidin-2-yl)amino)pyridin-3-yl)piperazin-1-yl)propanoyl)azetidin-3-yl)amino)-N-(2-cyclopropyl-1-methyl-1H-imidazol-4-yl)-6-(isopropylamino)nicotinamide], for which the 50% inhibitory concentration (IC50) (Homo sapiens, MCF7, MCF7 cells) is over 100 nM.
For `CC(=O)c1c(C)c2cnc(Nc3ccc(CN4CCN(CC(=O)N5CCC(Nc6nc(NC(C)C)ccc6C(=O)Nc6cn(C)c(C7CC7)n6)CC5)CC4)cn3)nc2n(C2CCCC2)c1=O` [CPD-420, 2-((1-(2-(4-((6-((6-acetyl-8-cyclopentyl-5-methyl-7-oxo-7,8-dihydropyrido[2,3-d]pyrimidin-2-yl)amino)pyridin-3-yl)methyl)piperazin-1-yl)acetyl)piperidin-4-yl)amino)-N-(2-cyclopropyl-1-methyl-1H-imidazol-4-yl)-6-(isopropylamino)nicotinamide], the half-maximal inhibitory concentration (IC50) (Homo sapiens, MCF7, MCF7 cells) was over 100 nM.
Still for that read-out and setting: the result for `CC(=O)c1c(C)c2cnc(Nc3ccc(N4CCN(CC(=O)NC(C)C5CC(Nc6nc(NC(C)C)ccc6C(=O)Nc6cc(C)on6)C5)CC4)cn3)nc2n(C2CCCC2)c1=O` (centres unmarked) [CPD-377, 2-((3-(1-(2-(4-(6-((6-acetyl-8-cyclopentyl-5-methyl-7-oxo-7,8-dihydropyrido[2,3-d]pyrimidin-2-yl)amino)pyridin-3-yl)piperazin-1-yl)acetamido)ethyl)cyclobutyl)amino)-6-(isopropylamino)-N-(5-methylisoxazol-3-yl)nicotinamide] reads 50 to 100 nM; that for `[2H]C([2H])([2H])Nc1ccc(C(=O)Nc2cn(C)c(C3CC3)n2)c(NC2CC3(C2)CN(C(=O)CN2CCC4(CCN(c5ccc(Nc6ncc7c(C)c(C(C)=O)c(=O)n(C8CCCC8)c7n6)nc5)C4)C2)C3)n1` (centres unmarked) [CPD-443, 2-((2-(2-(7-(6-((6-acetyl-8-cyclopentyl-5-methyl-7-oxo-7,8-dihydropyrido[2,3-d]pyrimidin-2-yl)amino)pyridin-3-yl)-2,7-diazaspiro[4.4]nonan-2-yl)acetyl)-2-azaspiro[3.3]heptan-6-yl)amino)-N-(2-cyclopropyl-1-methyl-1H-imidazol-4-yl)-6-((methyl-d3)amino)nicotinamide], under 50 nM.
In the case of `CNc1ccc(C(=O)Nc2cn(C)c(C3CCC3)n2)c(NC2CC3(CC(NC(=O)CN4CCN(c5ccc(Nc6ncc7c(C)c(C(C)=O)c(=O)n(C8CCCC8)c7n6)nc5)CC4)C3)C2)n1` (centres unmarked) [CPD-310, 2-((6-(2-(4-(6-((6-acetyl-8-cyclopentyl-5-methyl-7-oxo-7,8-dihydropyrido[2,3-d]pyrimidin-2-yl)amino)pyridin-3-yl)piperazin-1-yl)acetamido)spiro[3.3]heptan-2-yl)amino)-N-(2-cyclobutyl-1-methyl-1H-imidazol-4-yl)-6-(methylamino)nicotinamide], the IC50 (Homo sapiens, MCF7, MCF7 cells) is over 100 nM.
Same read-out and setting: for `CC(=O)c1c(C)c2cnc(Nc3ccc(CN4CCC(CC(=O)N5CCC(Nc6nc(NC(C)C)ccc6C(=O)Nc6ccc(N(C)C)nn6)CC5)CC4)cn3)nc2n(C2CCCC2)c1=O` [CPD-392, 2-((1-(2-(1-((6-((6-acetyl-8-cyclopentyl-5-methyl-7-oxo-7,8-dihydropyrido[2,3-d]pyrimidin-2-yl)amino)pyridin-3-yl)methyl)piperidin-4-yl)acetyl)piperidin-4-yl)amino)-N-(6-(dimethylamino)pyridazin-3-yl)-6-(isopropylamino)nicotinamide] the value was over 100 nM; for `CC(=O)c1c(C)c2cnc(Nc3ccc(N4CCC5(CC4)CC5C(=O)NC4CC(Nc5nc(NC(C)C)ccc5C(=O)Nc5ccc(N(C)C)nn5)C4)cn3)nc2n(C2CCCC2)c1=O` (centres unmarked) [CPD-413, 6-(6-((6-acetyl-8-cyclopentyl-5-methyl-7-oxo-7,8-dihydropyrido[2,3-d]pyrimidin-2-yl)amino)pyridin-3-yl)-N-(3-((3-((6-(dimethylamino)pyridazin-3-yl)carbamoyl)-6-(isopropylamino)pyridin-2-yl)amino)cyclobutyl)-6-azaspiro[2.5]octane-1-carboxamide], over 100 nM.
`CNc1ccc(C(=O)Nc2ccc(N(C)C)nn2)c(NC2CC(C(=O)N3CCC(N4CCN(c5ccc(Nc6ncc7c(C)c(C(C)=O)c(=O)n(C8CCCC8)c7n6)nc5)CC4)CC3)C2)n1` (centres unmarked) [CPD-334]: the 50% inhibitory concentration (IC50) (MCF7 cells) is over 100 nM.
As to `CNc1ccc(C(=O)Nc2ccc(N(C)C)nn2)c(NC2CC3(C2)CN(C(=O)C2CN(C4CCN(c5ccc(Nc6ncc7c(C)c(C(C)=O)c(=O)n(C8CCCC8)c7n6)nc5)CC4)C2)C3)n1` [CPD-364, 2-((2-(1-(1-(6-((6-acetyl-8-cyclopentyl-5-methyl-7-oxo-7,8-dihydropyrido[2,3-d]pyrimidin-2-yl)amino)pyridin-3-yl)piperidin-4-yl)azetidine-3-carbonyl)-2-azaspiro[3.3]heptan-6-yl)amino)-N-(6-(dimethylamino)pyridazin-3-yl)-6-(methylamino)nicotinamide], the half-maximal inhibitory concentration (IC50) (Homo sapiens, MCF7, MCF7 cells) was over 100 nM.
On to `CNc1ccc(C(=O)Nc2ccc(N(C)C)nn2)c(NC2CC(C(=O)N3CC(N4CCN(c5ccc(Nc6ncc7c(C)c(C(C)=O)c(=O)n(C8CCCC8)c7n6)nc5)CC4)C3)C2)n1` (centres unmarked) [CPD-332, 2-((3-(3-(4-(6-((6-acetyl-8-cyclopentyl-5-methyl-7-oxo-7,8-dihydropyrido[2,3-d]pyrimidin-2-yl)amino)pyridin-3-yl)piperazin-1-yl)azetidine-1-carbonyl)cyclobutyl)amino)-N-(6-(dimethylamino)pyridazin-3-yl)-6-(methylamino)nicotinamide], for which the 50% inhibitory concentration (IC50) (Homo sapiens, MCF7, MCF7 cells) is over 100 nM.
